Test results published in patent publication US5939578A, “Vasomolol: an ultra short-acting and vasodilatory vanilloid type β - adrenoceptor antagonist” (Lin; Tong-Ho, priority 1996, dated 1999).

Legend:
[1] = tested on: phenylephrine-induced pressor response; assay: Inhibition of phenylephrine-induced pressor response during intravenous infusion; assay type: in vivo, reserpinized rats; settings: infusion 300 μg/kg/min; phenylephrine 10 μg/kg i.v.; data not shown
Protocol: The method reported in Gen. Pharmacol. 24, 1425, 1993 (by inventor group),
phenylephrine (10 μg/klg, i.v.)

β-adrenergic receptor = assay: β-blockade and duration of action: inhibition of (-)isoproterenol-induced tachycardia during and after infusion; assay type: in vivo, pentobarbital-anesthetized rats
Protocol: Vasomolol (100 μg/kg/min) was infused consecutively into a femoral vein in pentobarbital-anesthetized rats. Each perfusion was maintained for 60 min. Before and during the infusion of vasomolol and esmolol, at 10-min intervals, bolus i.v. injections of (-) isoproterenol (0.5. μg/kg) were administered to assess the level of β-blockade. (-) lsoproterenol injections were also continued for 60 min. after termination of the highest dose of vasomolol and esmolol to assess the duration of β-blockade reported in J. Pharm. Exp. Ther. 237, 912, 1986 (by Quon, C. Y. et al.). The percentage of inhibition of the (-)isoproterenol-induced tachycardia parameter of β-blockade--was calculated during and after infusions of vasomolol.
isoproterenol (0.5 μg/kg)
vasomolol (0.5, 1.0, 3.0 mg/kg)

[2] = tested on: isolated rat thoracic aorta; assay: Inhibition of phenylephrine and high K+ induced contractions of isolated rat aorta (vasodilatation effect)
Protocol: Male rats weighing 200-250 g were sacrificed by a blow on the head and the thoracic aorta was removed and cleaned of all loosely adhering tissue. The thoracic aorta was cut from an area close to the aortic arch, immediately placed in a physiological solution, and trimmed to 2-4 mm in length as described in Gen. Pharmacol. 24, 1425, 1993 (by inventor group) The rings were then mounted with a tension of 1.0 g between parallel hooks in a 10 ml organ bath containing a physiological solution(mM):NaCl 112; KCl5.0; NaHCO3 25; KH2 PO4 1.0; CaCl2 1.25; MgSO4 1.2; and glucose 11.5]. The bath was maintained at 37° C. and aerated with a mixture of 95% O2 and 5% CO2. The tension of the aortic rings were recorded isometrically by means of a force displacement transducer (UGO, Model 7004, Italy) connected to an amplifier (COULBOURN, Model S72-25, U.S.A.). Before the start of the experiments, all preparations were allowed to equilibrate for 1.0 hr in the physiologic solution.
Effects of vasomolol on (A) phenylephrine(10^-5 M) and (B) high K^+ (75 mM) induced contraction in rat thoracic aorta.

[3] = biological target: T1, β1-adrenoceptor (left atrium) (Cavia porcellus, UniProt H0W3H1); assay: β-adrenoceptor antagonism in isolated electrically driven left atria (isoproterenol inotropic response); parameters: species or system guinea-pig
T1 construct: Spontaneously-beating right atria were removed from the hearts and mounted in a 10 ml organ bath; from tissue; host or cells: isolated guinea-pig (Hartley) right and left atria
T1 sequence (H0W3H1 1-470): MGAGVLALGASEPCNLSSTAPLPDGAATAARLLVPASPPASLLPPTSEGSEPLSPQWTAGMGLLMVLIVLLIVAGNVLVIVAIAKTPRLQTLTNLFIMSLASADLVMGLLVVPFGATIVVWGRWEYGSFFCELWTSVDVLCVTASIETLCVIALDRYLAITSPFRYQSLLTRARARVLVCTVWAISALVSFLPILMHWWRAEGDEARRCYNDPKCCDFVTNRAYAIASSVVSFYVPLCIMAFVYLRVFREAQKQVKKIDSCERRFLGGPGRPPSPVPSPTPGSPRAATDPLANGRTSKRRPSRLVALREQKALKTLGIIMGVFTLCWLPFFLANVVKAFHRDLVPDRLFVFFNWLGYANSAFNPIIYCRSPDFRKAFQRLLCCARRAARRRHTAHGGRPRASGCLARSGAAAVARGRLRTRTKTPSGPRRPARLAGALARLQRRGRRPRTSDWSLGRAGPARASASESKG
Protocol: In the isolated left atria, quiescent left atria were dissected free of connective tissue and mounted in organ chambers under a resting tension of 0.5 g. […] Cumulative concentration-response curves to the positive inotropic effects of (-) isoproterenol were obtained in the absence and presence of various concentrations of a test compound. An incubation time of 30 min was allowed for the test compound. Data were calculated as a percentage of the increase in force induced by (-) isoproterenol.
The pA2 values and slope values were calculated from individual Schild plots by regression analysis. The β1 /β2 -selectivity ratio was obtained from the antilogarithm of the difference between the mean pA2 values obtained from right atrium and trachea.
Mean cumulative concentration-response curves are shown for the positive chronotropic responses to (-) isoproterenol in spontaneously-beating guinea-pig right atria, positive inotropic responses to (-) isoproterenol in electrically driven guinea-pig left atria, and relaxant effects to (-) isoproterenol in guinea-pig spontaneous tone tracheal strips in the absence (.smallcircle.) or presence of 0.01 (.circle-solid.), 0.1, 1 (.tangle-soliddn.) or 10 (.diamond.) μM of vasomolol.

Structure (SMILES): CCOC(=O)c1ccc(OCC(O)CNC(C)(C)C)c(OC)c1 (centres unmarked) [Vasomolol]
- inhibition of phenylephrine-induced pressor response [1]: could not significantly inhibit
- onset of β-blockade to steady-state level (β-adrenergic receptor; after initiating each infusion rate, isoproterenol 0.5 μg/kg): ≤ 10 min
- time required for 50% recovery (β-adrenergic receptor; after termination of infusion, mean±S.E.M.): 9.5 ± 1.0 min
- disappearance of β-blockade after termination of infusion (β-adrenergic receptor; in words): disappeared rapidly after the termination of infusion
- inhibition of high K+ induced contraction ([2]; K+ 75 mM, vasomolol printed 10^6 -10^5 M): significantly inhibited
- relaxation sensitivity, high K+ versus phenylephrine ([2]; in words): more sensitive in high K^+ than in phenylephrine-contracted aorta preparations
- inhibition of phenylephrine-induced contraction ([2]; phenylephrine printed 10^5 M, vasomolol printed 10^6 -10^5 M): significantly inhibited
- antagonism of isoproterenol-induced positive inotropic responses ([3]; electrically driven left atrial strips): produced dose-dependent rightward shifts of the cumulative concentration-response curves to isoproterenol
- relative β-adrenoceptor blocking potency ([3]; guinea-pig atria, in words): more potent than atenolol, slightly more potent than metoprolol, and was less potent than propranolol
- pA2 value, β1, left atrium ([3]; mean ± SEM, six to eight experiments, 30 min): 7.44 ± 0.03
- Schild slope, left atrium ([3]; regression of Schild plot): 0.89 ± 0.02
